One data set addresses T1, sickle hemoglobin (HbS) (Homo sapiens, UniProt P68871+P69905, E7V).
T1 construct: from tissue
As to the kind of experiment: Solubility assay (Csat assay): solubility of deoxygenated sickle hemoglobin in the presence of drug. Type of data set: biochemical. The protocol:
One major assay for evaluating antisickling agents involves measuring their effect on increasing the concentration at which sickle hemoglobin forms a gel. This is called the solubility or Csat assay.
The solubility assay (Csat assay) measures the ability of a compound to increase solubility of sickle hemoglobin (HbS).
In order to confirm the effectiveness of these compounds in reducing the effect of sickle cell anemia, tests were performed. The materials were tested according to the assay (Csat) developed by Hofrichter et al. (J. Hofrichter, P.D. Ross and W. A. Eaton Proc. Natl. Acad. Sci. USA, 73 30-35, 1976). This assay involves deoxygenation of concentrated sickle hemoglobin with dithionite in the presence of different concentrations of the drugs being tested Samples were then sealed in quartz epr tubes under anaerobic conditions and spun at about 150,000 × g for about 21/2 hours at about 35° C. in an ultracentrifuge. This procedure pellets the polymerized HbS (sickle hemoglobin) to the bottom of the tubes and the supernatant (soluble HbS) was measured in the laboratory as the cyanmethemoglobin derivative. […] Activity is reported as a ratio of the HbS solubility with the particular drug to HbS solubility with no drug i.e. control. The higher the ratio the greater degree of activity of the drug. The numbers in parenthesis are % increase in the solubility of HbS; again the higher the number, the greater the activity of the drug. The results ofthe compound of Example 9, is shown as a representative example of the compounds of this invention.

In a further data set the test system is HbS. As to the kind of experiment: Chromatographic separation: tight covalent binding between HbS and the agent. Also noted: species or system human.
A short description of data set [1]: Tests of transport across erythrocyte membranes. The note with it: red blood cell membrane. Type of data set: in vitro ADME, human.

Counter-ions that a name gives are not always drawn.

With `C=C(CC)C(=O)c1ccc(OCC(=O)NCC(=O)O)c(Cl)c1Cl` [sodium salt of N-{([2,3-dichloro-4-(2-methylenebutyryl)-phenoxy]acetyl)}glycine], on sickle hemoglobin (HbS) (low concentrations (5 mM), versus dichlorobenzyloxyacetic and p-bromobenzyloxyacetic acids), the “solubility ratio compared with other antisickling agents (in words)” value is “higher solubility ratio than other antisickling agents, such as, dichlorobenzyloxyacetic and p-bromobenzyloxyacetic acids”. Moreover, the “covalent binding between the HbS and the therapeutic agent (in words)” value in the data set on HbS is “desired tight covalent binding between the HbS and the therapeutic agent had occurred”. Besides, in data set [1], the “transport across erythrocyte membranes (in words)” value was “confirmed the ability of the agent to cross the red blood cell membrane and react with hemoglobin”.

As for `C=C(CC)C(=O)c1ccc(OCC(=O)NCC(=O)O)c(Cl)c1Cl` [Example 9, N-{[2,3-Dichloro-4-(2-methylenebutyryl)phenoxy]-acetyl}glycine], the activation at 3000 µM at sickle hemoglobin (HbS) (3 mM, read-out: % increase in Solubility (of HbS)) came out at 27%. The fold induction at 3000 µM at sickle hemoglobin (HbS) (3 mM, read-out: Ratio of the HbS Solubility with the Drug Compared to HbS Solubility Without Drug) turned out to be 1.11. For the same compound, at sickle hemoglobin (HbS) (5 mM, read-out: % increase in Solubility (of HbS)), the activation at 5000 µM came to 36%. Further, the fold induction at 5000 µM at sickle hemoglobin (HbS) (5 mM, read-out: Ratio of the HbS Solubility with the Drug Compared to HbS Solubility Without Drug) turned out to be 1.15. Moreover, at sickle hemoglobin (HbS) (7 mM, read-out: % increase in Solubility (of HbS)), the activation at 7000 µM amounted to 56%. Also, the fold induction at 7000 µM on sickle hemoglobin (HbS) (7 mM, read-out: Ratio of the HbS Solubility with the Drug Compared to HbS Solubility Without Drug) is 1.22. For the same compound, the activation at 9000 µM on sickle hemoglobin (HbS) (9 mM, read-out: % increase in Solubility (of HbS)) came out at 82%. Also, on sickle hemoglobin (HbS) (9 mM, read-out: Ratio of the HbS Solubility with the Drug Compared to HbS Solubility Without Drug), the fold induction at 9000 µM was 1.33.

For the origin of these results see patent US4699926A, “Compounds useful in treating sickle cell anemia” (Merck & Co., Inc., priority 1986, dated 1987).
